The results in this text go back to ChEMBL document CHEMBL1141045, “Cyclic sulfamide gamma-secretase inhibitors” (Bioorg Med Chem Lett, 2005).

The target of data set [1] is Gamma-secretase. Kind of data set: Inhibitory concentration against gamma-secretase in whole cell SH-SY5Y assay. It is filed as protein-complex assay.
In data set [2] the test system is Rattus norvegicus. Kind of data set: (§1) AUC after administration of 30 (mpk) to rat through oral route. Particulars: in vivo, 30 mg/kg. The format is ADME, organism-based, Plasma.
Data set [3] can be described thus: AUC after administration of 1 (mpk) to rat through oral route. It is filed as ADME, organism-based. The conditions noted are these: plasma, 1 mg/kg.
Data set [4] can be described thus: AUC after administration of 4 (mpk) to rat through oral route. It is filed as ADME, organism-based. Particulars: plasma, 4 mg/kg.
The nature of data set [5]: as §1. It is filed as ADME, organism-based, Plasma. The conditions noted are these: plasma, 30 mg/kg.

Turning to `O=S1(=O)N[C@@]2(CN1C(F)(F)F)[C@@H]1CC[C@H]2Cc2ccccc2C1`, in data set [1], the IC50 is 17 nM.

With `O=S(=O)(N[C@H]1[C@@H]2CC[C@H]1Cc1ccccc1C2)c1ccc(Cl)s1`, the AUC in data set [2] came to 0.01 uMh.

Compound `CCCN1C[C@]2(NS1(=O)=O)[C@@H]1CC[C@H]2Cc2ccc(/C=C/CN3CCOCC3)cc2C1` registered an AUC in data set [3] of 1.19 µM·h. It took 19 nM to reach half-maximal inhibition in data set [1] (IC50).

For `CCCN1C[C@]2(NS1(=O)=O)[C@@H]1CC[C@H]2Cc2ccccc2C1`, the AUC in data set [3] worked out at 0.1 µM·h. The same compound returned a half-inhibitory concentration (IC50) in data set [1] of 138 nM.

In data set [1], `O=S(=O)(NC1[C@@H]2CC[C@H]1Cc1ccc(/C=C/CN3CCOCC3)cc1C2)c1ccc(Cl)s1` (some centres not stated) came in with an IC50 of 1 nM. The same compound registered an AUC in data set [4] of 0.38 µM·h.

Consider `CN1CCN(C/C=C/c2ccc3c(c2)C[C@H]2CC[C@@H](C3)[C@]23CN(CC(F)(F)F)S(=O)(=O)N3)CC1=O`, for which the midpoint of inhibition in data set [1], the IC50, lay at 21 nM.

In data set [1], `CC(=O)N1CCN(C/C=C/c2ccc3c(c2)C[C@H]2CC[C@@H](C3)[C@]23CN(CC(F)(F)F)S(=O)(=O)N3)CC1` gave an IC50 of 4 nM.

In data set [1], `O=S(=O)(N[C@H]1[C@@H]2CC[C@H]1Cc1ccccc1C2)NC(F)(F)F` had an IC50 of 134 nM.

In data set [1], `CC1CCN(C/C=C/c2ccc3c(c2)C[C@H]2CC[C@@H](C3)[C@]23CN(CC(F)(F)F)S(=O)(=O)N3)CC1` came in with an IC50 of 18 nM.

`O=S1(=O)N[C@@]2(CN1CC(F)(F)F)[C@@H]1CC[C@H]2Cc2ccc(/C=C/CN3CCCCC3)cc2C1` gave an IC50 in data set [1] of 250 nM.

In the case of `CCNS(=O)(=O)N[C@H]1[C@@H]2CC[C@H]1Cc1ccccc1C2`, the IC50 in data set [1] is 394 nM.

Regarding `CCN1C[C@]2(NS1(=O)=O)[C@@H]1CC[C@H]2Cc2ccccc2C1`, the midpoint of inhibition in data set [1], the IC50, lay at 429 nM.

In data set [1], `O=S1(=O)N[C@@]2(CN1CC(F)(F)F)[C@@H]1CC[C@H]2Cc2ccc(/C=C/CN3CCOCC3)cc2C1` came in with a concentration for half-maximal inhibition (IC50) of 3.4 nM.

`CCCCNS(=O)(=O)N[C@H]1[C@@H]2CC[C@H]1Cc1ccccc1C2`: inhibition in data set [1] was half-maximal at 766 nM (IC50).

On to `CCCCN1C[C@]2(NS1(=O)=O)[C@@H]1CC[C@H]2Cc2ccccc2C1`, for which the midpoint of inhibition in data set [1], the IC50, lay at 122 nM.

As for `CCCNS(=O)(=O)N[C@H]1[C@@H]2CC[C@H]1Cc1ccccc1C2`, the midpoint of inhibition in data set [1], the IC50, lay at 132 nM. This compound also gave an AUC in data set [5] of 0.6 µM·h.

Compound `CCCN1C[C@]2(NS1(=O)=O)[C@@H]1CC[C@H]2Cc2ccc(/C=C/CN3CCC(C(F)(F)F)CC3)cc2C1` had an IC50 in data set [1] of 2 nM.

`O=S1(=O)N[C@@]2(CN1CC(F)(F)F)[C@@H]1CC[C@H]2Cc2ccc(/C=C/CN3CCC(C(F)(F)F)CC3)cc2C1` came in with an IC50 in data set [1] of 0.5 nM.

Broadly, the IC50 is the point on the concentration scale where inhibition reaches its midpoint. A high value points to lower potency.
